# From US20140079836A1, “METHODS AND COMPOSITIONS FOR ALTERING HEALTH, WELLBEING, AND LIFESPAN” (LifeSpan Extension, LLC, priority 2008, published 2014)
# Tested on: genes involved in longevity (Array 1)
# Assay: Custom RT-PCR microarray (Array 1) gene expression in skin fibroblasts, UVB/UVA1
# Assay type: cell-based, human
# Settings: for RTC gene expression fold change / PPC gene expression fold change: control well
# Experimental: Seeding of cells: On Day 1, each cell culture was seeded into 6 well cluster dishes at ˜1.5×10^5 cells in 4 mls medium per well. Three wells were seeded per test condition or control.
# Experimental phase: On Day 3, wells were washed 1× with 2 mls medium, fed back 2 mls medium without fetal bovine serum and preincubated for 30-60 minutes before challenge with test or control conditions. After the preincubation, medium was aspirated from the wells and 2.5 mls of test or control condition in medium with 1% fetal bovine serum was pipetted into the appropriate wells.
# (3) UVA1, UVB exposed and unexposed cells without test condition were used as controls. The experimental phase ended at 24 hours post UV exposure. Cells from each test and control parameter were then prepped for RNA isolation as described below.
# UVB/UVA1 exposure: Cells exposed to UV received 200 mJ/cm^2 UVB/1 MED UVA1 using Thermo Oriel solar simulator model SP66923-3056. Cells were exposed from the bottom of the culture dish. The UV dose delivered to the cells was adjusted for interference from the plastic in the culture dish.
# Preparation of RNA: The RNA was isolated using the Qiagen RNEasy Plus Mini Kit according to the manufacturer's protocol which can be found on the World Wilde Web at qiagen.com/literature/Defaultaspx?Term=&Language=EN&LiteratureType=4& ProductCategory=10162. The RNA was quantified and examined for purity using the 260/280 nm read method in a μ Quant spectrophotometer before use in the array.
# Creation and Performance of a Custom Microarray (“Array 1”): Through the Custom Array design service of Superarray Bioscience Corporation, a 96 well RT-PCR microarray (“Array 1”) was developed to illustrate genetic responses in cells treated as above for specific genes involved in longevity as well as the relevant quality controls. The array was performed in compliance with manufacturer's guidelines and by recommended manufacturer's protocol as can be found on the World Wilde Web at superarray.com/Manual/perarrayplate.pdf
# (§1) Custom Microarray Results: The results from the microarrays were determined using the delta CT method which uses comparisons of control genes and threshold cycles of genes of interest to generate relative expression values. The full set of experimental conditions was cross referenced and the data is provided herewith in DATA TABLE 3.
# Preparation of RNA: The RNA was isolated using the Qiagen RNEasy Plus Mini Kit according to the manufacturer's protocol which can be found on the World Wide Web at qiagen.com/literature/Default. aspx?Term=&Language=EN&LiteratureType=4&ProductCategory=10162.
# The RNA was quantified and examined for purity using the 260/280 nm read method in a μ Quant spectrophotometer before use in the array.
# Creation and Performance of the Custom Microarray: Through the Custom Array design service of Superarray Bioscience Corporation, a 96 well RT-PCR Microarray was developed to illustrate genetic responses in cells treated as above for specific genes involved in longevity as well as the relevant quality controls. The array was performed in compliance with manufacturer's guidelines and by recommended manufacturer's protocol as can be found on the World Wide Web at superarray.com/Manual/perarrayplate.pdf.
# as §1, with “4.” for “3.”
# as §1, with “5. […]” for “3.”
# [1] = donor three vs. donor two idebenone + UVB Continuous Incubation
# [2] = donor two idebenone + UVB 4 hr Incubation
# [3] = donor two idebenone + UVB Continuous Incubation
# [4] = donor two idebenone + UVB vs. Green tea + UVB 4 hr Incubation
# [5] = donor two idebenone + UVB vs. Green tea + UVB Continuous Incubation
smiles,measurement,setting,value
"COC1=C(OC)C(=O)C(CCCCCCCCCCO)=C(C)C1=O [Idebenone, 6-(10-hydroxydecyl)-2,3-dimethoxy-5-methyl-1,4-benzoquin-one]",HSPA1A expression fold change,[1],2.28
same,HSPA1B expression fold change,[1],2.62
same,HSPA1L expression fold change,[1],1.61
same,IFI44 expression fold change,[1],−1.43
same,IGF1 expression fold change,[1],−1.08
same,IGF2 expression fold change,[1],−1.16
same,IL1A expression fold change,[1],2.20
same,IL6 expression fold change,[1],3.97
same,IL10 expression fold change,[1],1.14
same,KRAS expression fold change,[1],1.18
same,MAPK14 expression fold change,[1],1.03
same,NADSYN1 expression fold change,[1],2.28
same,NFKB1 expression fold change,[1],1.56
same,NOS2A expression fold change,[1],1.56
same,PARP1 expression fold change,[1],2.05
same,PARP2 expression fold change,[1],−1.48
same,PPARG expression fold change,[1],−1.76
same,PTGS2 expression fold change,[1],2.44
same,SHC1 expression fold change,[1],1.67
same,SIRT1 expression fold change,[1],−1.04
same,SOD1 expression fold change,[1],2.44
same,SOD2 expression fold change,[1],−1.38
same,TEP1 expression fold change,[1],1.31
same,TERT expression fold change,[1],2.13
same,TNF expression fold change,[1],1.40
same,TP53 expression fold change,[1],−1.04
same,ACE expression fold change,[2],1.22
same,ACTB expression fold change,[2],−1.01
same,APOE expression fold change,[2],1.03
same,BAX expression fold change,[2],1.40
same,BCL2 expression fold change,[2],1.40
same,CASP2 expression fold change,[2],−1.53
same,CASP9 expression fold change,[2],1.27
same,CCL4L1 expression fold change,[2],1.06
same,CLK1 expression fold change,[2],−1.24
same,COX1 expression fold change,[2],1.14
same,CREBBP expression fold change,[2],1.10
same,CYP19A1 expression fold change,[2],1.40
same,DDC expression fold change,[2],1.45
same,GAPDH expression fold change,[2],−1.95
same,GH1 expression fold change,[2],−1.04
same,HIGX1A fold change,[2],−1.42
same,HLA-DRA expression fold change,[2],1.22
same,HPRT1 expression fold change,[2],1.03
same,HSPA1A expression fold change,[2],1.06
same,HSPA1B expression fold change,[2],1.56
same,HSPA1L expression fold change,[2],1.40
same,IFI44 expression fold change,[2],2.20
same,IGF1 expression fold change,[2],−1.47
same,IGF2 expression fold change,[2],1.06
same,IL1A expression fold change,[2],−2.16
same,IL6 expression fold change,[2],−11.39
same,IL10 expression fold change,[2],1.14
same,KRAS expression fold change,[2],1.73
same,MAPK14 expression fold change,[2],1.27
same,NADSYN1 expression fold change,[2],−1.08
same,NFKB1 expression fold change,[2],2.20
same,NOS2A expression fold change,[2],1.61
same,PARP1 expression fold change,[2],1.92
same,PARP2 expression fold change,[2],1.22
same,PPARG expression fold change,[2],1.18
same,PTGS2 expression fold change,[2],1.61
same,SHC1 expression fold change,[2],2.06
same,SIRT1 expression fold change,[2],1.18
same,SOD1 expression fold change,[2],−1.08
same,SOD2 expression fold change,[2],1.27
same,TEP1 expression fold change,[2],1.31
same,TERT expression fold change,[2],−1.38
same,TNF expression fold change,[2],−1.20
same,TP53 expression fold change,[2],−1.64
same,ACE expression fold change,[3],1.92
same,ACTB expression fold change,[3],1.31
same,APOE expression fold change,[3],1.18
same,BAX expression fold change,[3],−1.04
same,BCL2 expression fold change,[3],3.83
same,CASP2 expression fold change,[3],1.14
same,CASP9 expression fold change,[3],2.13
same,CCL4L1 expression fold change,[3],1.40
same,CLK1 expression fold change,[3],1.85
same,COX1 expression fold change,[3],−1.43
same,CREBBP expression fold change,[3],1.18
same,CYP19A1 expression fold change,[3],1.31
same,DDC expression fold change,[3],1.85
same,GAPDH expression fold change,[3],−1.38
same,GH1 expression fold change,[3],3.01
same,HIGX1A fold change,[3],1.22
same,HLA-DRA expression fold change,[3],2.44
same,HPRT1 expression fold change,[3],5.23
same,HSPA1A expression fold change,[3],1.50
same,HSPA1B expression fold change,[3],3.70
same,HSPA1L expression fold change,[3],−2.48
same,IFI44 expression fold change,[3],1.56
same,IGF1 expression fold change,[3],3.45
same,IGF2 expression fold change,[3],−1.12
same,IL1A expression fold change,[3],3.57
same,IL6 expression fold change,[3],3.01
same,IL10 expression fold change,[3],2.05
same,KRAS expression fold change,[3],2.13
same,MAPK14 expression fold change,[3],2.44
same,NADSYN1 expression fold change,[3],1.56
same,NFKB1 expression fold change,[3],3.70
same,NOS2A expression fold change,[3],1.98
same,PARP1 expression fold change,[3],1.67
same,PARP2 expression fold change,[3],2.53
same,PPARG expression fold change,[3],3.22
same,PTGS2 expression fold change,[3],2.71
same,SHC1 expression fold change,[3],1.92
same,SIRT1 expression fold change,[3],1.98
same,SOD1 expression fold change,[3],1.10
same,SOD2 expression fold change,[3],1.03
same,TEP1 expression fold change,[3],1.79
same,TERT expression fold change,[3],8.50
same,TNF expression fold change,[3],1.50
same,TP53 expression fold change,[3],1.67
same,ACE expression fold change,[4],1.32
same,ACTB expression fold change,[4],−3.03
same,APOE expression fold change,[4],1.04
same,BAX expression fold change,[4],1.11
same,BCL2 expression fold change,[4],1.19
same,CASP2 expression fold change,[4],−1.23
same,CASP9 expression fold change,[4],1.15
same,CCL4L1 expression fold change,[4],10.95
same,CLK1 expression fold change,[4],−1.11
same,COX1 expression fold change,[4],−1.19
same,CREBBP expression fold change,[4],1.11
same,CYP19A1 expression fold change,[4],11.33
same,DDC expression fold change,[4],14.95
same,GAPDH expression fold change,[4],−2.92
same,GH1 expression fold change,[4],8.30
same,HIGX1A fold change,[4],8.30
same,HLA-DRA expression fold change,[4],16.03
same,HPRT1 expression fold change,[4],1.04
same,HSPA1A expression fold change,[4],1.32
same,HSPA1B expression fold change,[4],2.64
same,HSPA1L expression fold change,[4],1.87
same,IFI44 expression fold change,[4],2.15
same,IGF1 expression fold change,[4],4.77
same,IGF2 expression fold change,[4],1.00
same,IL1A expression fold change,[4],1.28
same,IL6 expression fold change,[4],−9.83
same,IL10 expression fold change,[4],4.29
same,KRAS expression fold change,[4],−1.11
same,MAPK14 expression fold change,[4],1.32
same,NADSYN1 expression fold change,[4],−1.19
same,NFKB1 expression fold change,[4],−1.03
same,NOS2A expression fold change,[4],17.18
same,PARP1 expression fold change,[4],1.52
same,PARP2 expression fold change,[4],5.87
same,PPARG expression fold change,[4],2.74
same,PTGS2 expression fold change,[4],2.22
same,SHC1 expression fold change,[4],1.11
same,SIRT1 expression fold change,[4],1.63
same,SOD1 expression fold change,[4],1.52
same,SOD2 expression fold change,[4],−1.32
same,TEP1 expression fold change,[4],2.55
same,TERT expression fold change,[4],3.37
same,TNF expression fold change,[4],6.98
same,TP53 expression fold change,[4],−1.51
same,ACE gene expression fold change,[5],1.33
same,ACTB gene expression fold change,[5],−1.67
same,APOE gene expression fold change,[5],1.16
same,BAX gene expression fold change,[5],−1.45
same,BCL2 gene expression fold change,[5],−1.10
same,CASP2 gene expression fold change,[5],−1.79
same,CASP9 gene expression fold change,[5],1.58
same,CCL4L1 gene expression fold change,[5],4.97
same,CLK1 gene expression fold change,[5],1.01
same,COX1 gene expression fold change,[5],−2.53
same,CREBBP gene expression fold change,[5],−1.10
same,CYP19A1 gene expression fold change,[5],8.07
same,DDC gene expression fold change,[5],24.46
same,GAPDH gene expression fold change,[5],−1.10
same,GH1 gene expression fold change,[5],25.33
same,HIGX1A gene expression fold change,[5],6.12
same,HLA-DRA gene expression fold change,[5],58.18
same,HPRT1 gene expression fold change,[5],2.40
same,HSPA1A gene expression fold change,[5],1.12
same,HSPA1B gene expression fold change,[5],1.16
same,HSPA1L gene expression fold change,[5],−1.61
same,IFI44 gene expression fold change,[5],1.29
same,IGF1 gene expression fold change,[5],6.12
same,IGF2 gene expression fold change,[5],−1.14
same,IL1A gene expression fold change,[5],10.65
same,IL6 gene expression fold change,[5],1.04
same,IL10 gene expression fold change,[5],4.32
same,KRAS gene expression fold change,[5],1.53
same,MAPK14 gene expression fold change,[5],1.64
same,NADSYN1 gene expression fold change,[5],1.12
same,NFKB1 gene expression fold change,[5],2.24
same,NOS2A gene expression fold change,[5],15.06
same,PARP1 gene expression fold change,[5],−1.98
same,PARP2 gene expression fold change,[5],4.48
same,PPARG gene expression fold change,[5],2.16
same,PTGS2 gene expression fold change,[5],−1.06
same,SHC1 gene expression fold change,[5],1.48
same,SIRT1 gene expression fold change,[5],1.88
same,SOD1 gene expression fold change,[5],−1.56
same,SOD2 gene expression fold change,[5],1.33
same,TEP1 gene expression fold change,[5],1.12
same,TERT gene expression fold change,[5],7.53
same,TNF gene expression fold change,[5],10.29
same,TP53 gene expression fold change,[5],1.88
same,RTC gene expression fold change,"donor two idebenone + UVB vs. Green tea + UVB Continuous Incubation, entry r283",1.08
same,PPC gene expression fold change,"donor two idebenone + UVB vs. Green tea + UVB Continuous Incubation, entry r289",−1.67
same,RTC gene expression fold change,"donor two idebenone + UVB vs. Green tea + UVB Continuous Incubation, entry r293",2.09
same,PPC gene expression fold change,"donor two idebenone + UVB vs. Green tea + UVB Continuous Incubation, entry r295",−1.35
